The values below come from patent US10759994B2, “Luminogenic transition metal-based pyridyl complex and its use” (City University of Hong Kong, priority 2016, dated 2020).

The nature of data set [1]: SPANC reaction kinetics with BCN—OH by UV/Vis absorption spectroscopy. Conditions: for Second-order rate constants (k2): reaction with BCN—OH in MeOH at 298 K. In kind it is physicochemical. As to the method: The reactivity of the iridium(III) and ruthenium(II) pyridyl complexes toward a strained alkyne derivative BCN—OH in MeOH at 298 K was studied. The second-order rate constants (k2) of the strain-promoted alkyne-nitrone cycloaddition (SPANC) reaction of complexes 1a-5b are shown in Tables 3 and 4, respectively. The k2 values of the iridium(III) complexes 1a, 2a and 3a and the ruthenium(II) complexes 1b, 2b, 3b, 4b, and 5b were determined to be 0.116-0.238 and 0.078-3.06 M^−1 s^−1, respectively, which are about 1.95-76.5 times that of the free ligand bpy-nitrone-Me (k2=0.040 M^−1 s^−1). This is attributed to the electron-withdrawing effects of the positively-charged metal centers. […] The accelerated reaction kinetics is assumed to originate from the presence of the more electron-withdrawing phenyl ring at the N-position of the nitrone moiety. Thus, the accelerated reaction kinetics render complexes 1a-5b highly advantageous bioorthogonal probes for biomolecules modified with a strained alkyne moiety.
More specifically, the SPANC reaction kinetics of complexes 1a 5b was studied by UV/Ms absorption spectroscopy. For the ligand bpy-nitrone-Me and the iridium(III) complexes 1a-3a, the k2 values were measured under pseudo first order conditions with a 25- to 100-fold excess of BCN—OH in MeOH at 298 K. The reaction process was followed by monitoring the exponential decay of the absorbance at 306-342 nm upon addition of BCN—OH. The final concentrations of the nitrone compounds were 10 μM and those of BCN—OH ranged from 0.25 to 1.0 mM. For the ruthenium(II) complexes 1b-5b, the k2 values were determined under pseudo first order conditions with a 50- to 200-fold excess of BCN—OH in MeOH at 298 K. The reaction process was monitored by following the exponential decay of the absorbance at 329 nm. The final concentrations of the complexes were 10 μM and those of BCN—OH ranged from 0.5 to 2.0 mM. The data were fitted to a single-exponential equation to give the observed rate constants (kobs), which were plotted against the concentrations of BCN—OH to obtain the k2 from the slope of the plots.

Data set [2] is described as follows: Emission enhancement upon reaction with BCN—OH. Format: physicochemical. Conditions: complex 10 μM, BCN—OH 1 mM, aerated MeOH, 298 K. From the text: The strained alkyne BCN—OH has been selected as a model substrate. […] Namely, these findings confirm that complexes 1a-5b remained non-emissive or weakly emissive as long as the nitrone moiety is intact and resume their strongly emissive behavior upon cycloaddition reaction with strained alkynes.

The subject of the next data set is HeLa cells. Format: cell-based. Conditions: complex 40 μM; for Percentage of survival: 37° C., 6 h; for Cell viability with BCN-C10 pretreatment: BCN-C10 pretreatment (200 μM, 1 h). The text has this: The results particularly highlight the potential of the luminogenic transition metal-based polypyridyl complexes of the present invention for bioorthogonal labeling. […] Importantly, although the cellular uptake of complex 2b was substantially higher, it was much less cytotoxic than complex 4b toward the pretreated cells. […] The results also highlight the potential therapeutic use of intracellular bioorthogonal coupling reactions in activating the cytotoxicity of metallo drugs.
For determining the cytotoxicity of complexes 1 b 5b, HeLa cells were seeded in a 96-well flat-bottomed microplate (about 10,000 cells well^−1) in growth medium (100 μL) and incubated at 37° C. under a 5% CO2 atmosphere for 24 h. The cells were then incubated in either blank medium or growth medium/DMSO (99:1, v/v) (100 μL) containing BCN-C10 (200 μM) in the dark at 37° C. under a 5% CO2 atmosphere for 1 h. The medium was then removed, the cell layer was washed with PBS, and further incubated in growth medium/DMSO (99:1, v/v) (100 μL) containing the ruthenium(II) complexes (40 μM) in the dark at 37° C. under a 5% CO2 atmosphere for 6, 12, or 24 h. Wells containing untreated cells were used as blank control. The microplate was incubated at 37° C. under a 5% CO2 atmosphere for another 4 h. The growth medium was then removed, and DMSO (200 μL) was added to each well. The microplate was further incubated for 15 min. The absorbance of the solutions at 570 nm was measured with a SPECTRAmax 340 microplate reader.

Another data set concerns the target T1, unmodified BSA (Bos taurus, UniProt P02769).
T1 construct: purchased Calbiochem
In words: Emission enhancement with unmodified BSA (negative control). Format: biochemical, Bovine. Conditions: complex 10 μM, protein 3.78 μM, aerated potassium phosphate buffer (50 mM, pH 7.4)/DMSO (99:1, v/v), 298 K.

A short description of data set [3]: Photophysical data (emission wavelength, lifetime, quantum yield). Format: physicochemical. The method, then: Electronic absorption spectra were recorded on an Agilent 8453 diode array spectrophotometer. Steady-state emission spectra were recorded on a HORIBA JOBIN YVON Fluorolog TCSPC spectrofluorometer. Unless specified otherwise, all solutions for photophysical studies were degassed with no fewer than four successive freeze-pump-thaw cycles and stored in a 10-cm^3 round bottomed flask equipped with a side-arm 1-cm fluorescence cuvette and sealed from the atmosphere by a Rotaflo HP6/6 quick-release Teflon stopper. Luminescence quantum yields were measured by the optically dilute method (Demas, J. N. and Crosby, G. A., J. Phys. Chem. 1971, 75, 991) using an aerated aqueous solution of [Ru(bpy)3]Cl2 (ϕem=0.028, λex=455 nm) as the standard solution (Wallace, L. and Rillema, D. P., Inorg. Chem., 1993, 32, 3836). The concentrations of the standard and sample solutions were adjusted until the absorbance at 455 nm was 0.1. The emission lifetimes were measured on a HORIBA JOBIN YVON Fluorolog TCSPC spectrofluorometer in the Fast MCS lifetime mode with a NanoLED N-375 as the excitation source.
The very low emission quantum yield of complexes 1a-5b compared with other related iridium(III) and ruthenium(II) systems are expected to be due to quenching by the nitrone moiety.
In particular, the emission quantum yields of the iridium(III) complexes 1a, 2a and 3a (ϕem<0.021; Table 1) were much lower than those of common cyclometalated iridium(Ill) polypyridyl complexes (Li, S. P.-Y. et al., Chem. Eur. J. 2010, 16, 8329; Li, S. P.-Y. et al., Biomaterials 2013, 34, 7519; Lo, K. K.-W. et al., Chem. Commun. 2013, 49, 4271) which is expected to be a consequence of efficient quenching associated with isomerization of the C═N group.

[4] abbreviates: Potassium phosphate buffer (50 mM, pH 7.4)/DMSO (9:1, v/v), 298 K.
[5] abbreviates: Potassium phosphate buffer (50 mM, pH 7.4)/MeOH (4:1, v/v), 298 K.

T1 sequence (P02769 25-607): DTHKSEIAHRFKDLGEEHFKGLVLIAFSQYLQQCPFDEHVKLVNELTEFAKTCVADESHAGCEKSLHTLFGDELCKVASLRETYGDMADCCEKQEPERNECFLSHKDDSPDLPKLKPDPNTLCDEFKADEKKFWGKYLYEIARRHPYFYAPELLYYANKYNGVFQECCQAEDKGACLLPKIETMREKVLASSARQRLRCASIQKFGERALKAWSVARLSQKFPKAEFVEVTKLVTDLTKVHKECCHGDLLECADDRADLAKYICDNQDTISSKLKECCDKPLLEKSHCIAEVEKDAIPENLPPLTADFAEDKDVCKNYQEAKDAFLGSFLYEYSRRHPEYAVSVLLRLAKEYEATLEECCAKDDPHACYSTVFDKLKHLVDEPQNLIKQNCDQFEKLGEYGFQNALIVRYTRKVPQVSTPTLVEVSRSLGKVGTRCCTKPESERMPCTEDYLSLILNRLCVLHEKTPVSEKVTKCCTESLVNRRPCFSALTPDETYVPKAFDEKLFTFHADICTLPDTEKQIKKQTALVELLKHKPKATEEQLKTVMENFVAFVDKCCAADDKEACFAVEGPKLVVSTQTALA

`Cc1ccnc(-c2cc(/C=[N+](/C)[O-])ccn2)c1.F[P-](F)(F)(F)(F)F.F[P-](F)(F)(F)(F)F.[Ru+2].c1ccc(-c2ccccn2)nc1.c1ccc(-c2ccccn2)nc1` [Complex 1b]: the “Second-order rate constants (k2)” value in data set [1] was found to be 0.084 ± 0.005 M⁻¹ s⁻¹. In data set [2], the “Emission enhancement factors (I/Io)” value is listed as 9.5. In addition, the Percentage of survival with HeLa cells was 91.37 ± 5.73%. In addition, the “I/Io BSA” value on unmodified BSA came out at 1.1. For the same compound, in data set [3] (CH2Cl2, 298 K), the Φem turned out to be 0.006 and the τo amounted to 1.20 μs. In data set [3] (MeOH, 298 K), this compound had a Φem of 0.006, a λem of 609 nm and a τo of 0.94 μs. In data set [3] (setting [4]), this compound returned a Φem of 0.004, a λem of 611 nm and a τo of 0.64 μs.
Consider `CCCCNC(=O)c1ccnc(-c2cc(C(=O)NCCCC)ccn2)c1.CCCCNC(=O)c1ccnc(-c2cc(C(=O)NCCCC)ccn2)c1.Cc1ccnc(-c2cc(/C=[N+](/C)[O-])ccn2)c1.F[P-](F)(F)(F)(F)F.F[P-](F)(F)(F)(F)F.[Ru+2]` [Complex 2b], for which the “Second-order rate constants (k2)” value in data set [1] is 0.086 ± 0.005 M⁻¹ s⁻¹. The “Emission enhancement factors (I/Io)” value in data set [2] stood at 7.1. Further, in the data set on HeLa cells, the “Cell viability with BCN-C10 pretreatment” value is listed as “maintained good biocompatibility” and the Percentage of survival worked out at 94.83 ± 16.20%. Besides, the “I/Io BSA” value at unmodified BSA amounted to 1.1. In data set [3] (CH2Cl2, 298 K), this compound displayed a Φem of 0.013 and a τo of 1.68 μs. In data set [3] (MeOH, 298 K), the Φem is given as 0.006, the λem worked out at 647 nm and the τo is given as 0.98 μs. In data set [3] (setting [4]), this compound gave a Φem of 0.003, a λem of 650 nm and a τo of 0.52 μs.
As for `Cc1ccnc(-c2cc(/C=[N+](\[O-])c3ccccc3)ccn2)c1.F[P-](F)(F)(F)(F)F.F[P-](F)(F)(F)(F)F.[Ru+2].c1ccc(-c2ccccn2)nc1.c1ccc(-c2ccccn2)nc1` [Complex 5b], the “k2 relative to those of the N-methyl nitrone complexes 1b, 2b, 3b and 4b” value in data set [1] (BCN—OH in MeOH at 298 K) is recorded as “at least 36 fold”. In addition, in data set [2], the “Emission enhancement factors (I/Io)” value is given as 3.9. Further, in the data set with HeLa cells, the “Cell viability with BCN-C10 pretreatment” value is “maintained good biocompatibility” and the Percentage of survival is listed as 92.78 ± 8.54%. At unmodified BSA, the “I/Io BSA” value worked out at 1.1. In data set [3] (MeOH, 298 K), this compound yielded a Φem of 0.015, a λem of 608 nm and a τo of 0.63 μs. For the same compound, in data set [3] (setting [5]), the Φem is recorded as 0.006, the λem is reported as 610 nm and the τo was 0.69 μs.
